Results reported in patent US20230059009A1, “INHIBITORS OF LIN28 AND METHODS OF USE THEREOF” (The Regents of the University of California, priority 2019, published 2023).

Assays:
[1] = system: 22RV1; experiment: Cell viability, MTT assay, 22RV1; format: cell-based; conditions: Homo sapiens, 22RV1 (Prostate), 96 hr
Experimental: (§1) To measure cell viability, cell titer glow (CTG, Promega CellTiter-Glo 2.0 Assay) and MTT assays (SigmaAldrich, Cell Proliferation Kit I) were performed. Briefly, cells were serum starved overnight prior to seeding in 96-well plates. Following 24 h incubation, cells were treated with increasing concentrations of JGJ compounds for 96 hr. At assay read-out, CellTiter-Glo reagent was added and luminescence was measured after 10-minutes incubation at room temperature. For the MTT assay, MTT labeling reagent was added and incubated for 4 h. Subsequently, medium was removed and 50 μL DMSO was added to solubilize the crystals, and absorbance was measured at 570 nm. Cell viability was calculated as (Sample-Background)/(Control-Background).

[2] = system: 22RV1; experiment: Cell viability, CellTiter-Glo (CTG), 22RV1; format: cell-based; conditions: Homo sapiens, 22RV1 (Prostate), 96 hr
Experimental: as §1

[3] = system: LNCaP; experiment: Cell viability, MTT assay, LNCaP; format: cell-based; conditions: Homo sapiens, LNCaP (Prostate)
Experimental: as §1

[4] = system: DU145; experiment: Cell viability, MTT assay, DU145; format: cell-based; conditions: Homo sapiens, DU-145, DU145 (Prostate)
Experimental: as §1, with “(Sample-Background)/(Control-Background). Current standard of care drugs, Enzalutamide, Palbociclib and Cetuximab were used as comparative controls.” for “(Sample-Background)/(Control-Background).”

[5] = system: H1975; experiment: Cell viability, MTT assay, H1975; format: cell-based; conditions: Homo sapiens, NCI-H1975, H1975 (Lung)
Experimental: as §1

[6] = system: H1568; experiment: Cell viability, MTT assay, H1568; format: cell-based; conditions: NCI-H1568, H1568 (Lung)
Experimental: as §1, with “(Sample-Background)/(Control-Background). Current standard of care drugs, Enzalutamide, Palbociclib and Cetuximab were used as comparative controls.” for “(Sample-Background)/(Control-Background).”

[7] = system: A549; experiment: Cell viability, MTT assay, A549; format: cell-based; conditions: Homo sapiens, A549 (Lung)
Experimental: as §1

[8] = system: H23; experiment: Cell viability, MTT assay, H23; format: cell-based; conditions: Homo sapiens, NCI-H23, H23 (Lung)
Experimental: as §1, with “(Sample-Background)/(Control-Background). Current standard of care drugs, Enzalutamide, Palbociclib and Cetuximab were used as comparative controls.” for “(Sample-Background)/(Control-Background).”

[9] = system: H460; experiment: Cell viability, MTT assay, H460; format: cell-based; conditions: Homo sapiens, NCI-H460, H460 (Lung)
Experimental: as §1, with “(Sample-Background)/(Control-Background). Current standard of care drugs, Enzalutamide, Palbociclib and Cetuximab were used as comparative controls.” for “(Sample-Background)/(Control-Background).”

[10] = system: BT-549; experiment: Cell viability, MTT assay, BT-549; format: cell-based; conditions: Homo sapiens, BT-549 (Breast)
Experimental: as §1, with “(Sample-Background)/(Control-Background). Current standard of care drugs, Enzalutamide, Palbociclib and Cetuximab were used as comparative controls.” for “(Sample-Background)/(Control-Background).”

[11] = system: MDA-MB231; experiment: Cell viability, MTT assay, MDA-MB231; format: cell-based; conditions: Homo sapiens, MDA-MB-231, MDA-MB231 (Breast)
Experimental: as §1, with “(Sample-Background)/(Control-Background). Current standard of care drugs, Enzalutamide, Palbociclib and Cetuximab were used as comparative controls.” for “(Sample-Background)/(Control-Background).”

[12] = system: MDA-MB231; experiment: Cell viability, CTG, MDA-MB231; format: cell-based; conditions: Homo sapiens, MDA-MB-231, MDA-MB231 (Breast)
Experimental: as §1, with “(Sample-Background)/(Control-Background). Current standard of care drugs, Enzalutamide, Palbociclib and Cetuximab were used as comparative controls.” for “(Sample-Background)/(Control-Background).”

[13] = system: MCF7; experiment: Cell viability, MTT assay, MCF7; format: cell-based; conditions: Homo sapiens, MCF7 (Breast)
Experimental: as §1, with “(Sample-Background)/(Control-Background). Current standard of care drugs, Enzalutamide, Palbociclib and Cetuximab were used as comparative controls.” for “(Sample-Background)/(Control-Background).”

[14] = system: HCT-116; experiment: Cell viability, CTG, HCT-116; format: cell-based; conditions: Homo sapiens, HCT-116 (Colon)
Experimental: as §1, with “(Sample-Background)/(Control-Background). Current standard of care drugs, Enzalutamide, Palbociclib and Cetuximab were used as comparative controls.” for “(Sample-Background)/(Control-Background).”

[15] = system: SW620; experiment: Cell viability, CTG, SW620; format: cell-based; conditions: Homo sapiens, SW-620, SW620 (Colon)
Experimental: as §1, with “(Sample-Background)/(Control-Background). Current standard of care drugs, Enzalutamide, Palbociclib and Cetuximab were used as comparative controls.” for “(Sample-Background)/(Control-Background).”

[16] = system: SW948; experiment: Cell viability, CTG, SW948; format: cell-based; conditions: Homo sapiens, SW948 (Colon)
Experimental: as §1, with “(Sample-Background)/(Control-Background). Current standard of care drugs, Enzalutamide, Palbociclib and Cetuximab were used as comparative controls.” for “(Sample-Background)/(Control-Background).”

[17] = target: T1, LIN28B/pre-let-7a-2 binding (Homo sapiens, UniProt Q6ZN17); experiment: FRET assay, EGFP-tagged LIN28B and BHQ-1 labelled pre-let-7a-2; conditions: doses 1.25 uM-20 uM; compared with LN1632
T1 construct: made in house; host or cells: stably transduced HEK cells; used as diluted protein lysate, not purified
T1 sequence (Q6ZN17 1-250): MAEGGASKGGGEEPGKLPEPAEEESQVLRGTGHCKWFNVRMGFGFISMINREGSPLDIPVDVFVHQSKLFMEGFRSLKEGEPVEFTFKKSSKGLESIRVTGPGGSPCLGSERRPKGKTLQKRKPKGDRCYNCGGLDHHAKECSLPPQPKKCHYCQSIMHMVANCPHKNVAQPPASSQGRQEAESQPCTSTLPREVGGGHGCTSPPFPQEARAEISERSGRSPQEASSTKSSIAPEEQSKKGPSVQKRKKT
Experimental: As described herein, compounds of formula (I) and (II) show Lin28/let-7 inhibitory activity in FRET assays in vitro and in LSCs and LSC-like Kasumi-1 cells. FRET assay was performed as previously described (51).
In order to improve binding and inhibitory capacity of a compound to LIN28b, we predicted the binding mode of LN1632 to LIN28B. […] With this model in hand, we synthesized novel compounds with improved binding capacity to Lin28b (JGJ002-JGJ008, FIG. 8). Compounds were screened using a previously described FRET-assay with an EGFP-tagged LIN28B as donor and a BHQ-1 quencher labelled pre-let-7a-2 (pre-let-7a-2-BHQ1) as acceptor (51). Briefly, recombinant LIN28B-EGFP was harvested from stably transduced HEK cells and diluted with binding buffer (300 mM NaCl, 25 mM HEPES pH 7.2, 10 μM ZnCl2, 1% Odyssey Blocking Buffer, 0.05% Tween 20, 0.5 mM TCEP) in order to adjust ideal FRET-quenching signal intensity. Protein lysate and compounds (JGJ001-JGJ008) were pre-incubated in doses ranging from 1.25 uM-20 uM for 20 min in 100 uL diluted protein lysate. Subsequently pre-let-7a-2-BHQ1 was added to the mixture (at 6.25 nM) and EGFP-LIN28B donor emission was measured using a Tecan Spark Plate Reader ([…], excitation at 488 nm, emission read-out at […], 30 flashes/s). […] Increased endogenous let-7 miRNA levels can target a panoply of LCS and cancer stem cell hallmark genes thus inhibiting tumor growth.
(§2) To test the structure-activity relationship, 39 LN1632-related analogs (JGJ001-39) were synthesized and their potency and specificity to inhibit LIN28B-RNA binding activity and upregulate mature let-7 miRNA levels was measured. […] The dual luciferase reporter assay was performed as previously described (89).

[18] = system: mature let-7 miRNAs; experiment: Dual luciferase reporter assay of mature let-7 miRNAs in HepG2 cells; format: cell-based; conditions: 3-10 μM, compared with LN1632
Experimental: as §2

[19] = system: 22Rv1 cells; experiment: 22Rv1 cell counting; format: cell-based; conditions: 2 μM JGJ023 vs 42 μM Enzalutamide, day +5, +7, +9
Experimental: (§3) To test whether LN1632 and novel analogs thereof affect cancer cell growth, cell viability and cell counting assays in TNBC (FIG. 14B-D), castration resistant prostate cancer cells (CRPC, FIG. 15A-C) and colorectal cancer cells (CRC, FIG. 15A-C) were performed.

[20] = system: SW620; experiment: Cell viability, MTT assay, SW620; format: cell-based; conditions: Homo sapiens, SW-620, SW620 (Colon)
Experimental: as §1, with “(Sample-Background)/(Control-Background). Current standard of care drugs, Enzalutamide, Palbociclib and Cetuximab were used as comparative controls.” for “(Sample-Background)/(Control-Background).”

[21] = system: SW480; experiment: Cell viability, MTT assay, SW480; format: cell-based; conditions: Homo sapiens, SW480 (Colon)
Experimental: as §1, with “(Sample-Background)/(Control-Background). Current standard of care drugs, Enzalutamide, Palbociclib and Cetuximab were used as comparative controls.” for “(Sample-Background)/(Control-Background).”

[22] = system: SW480; experiment: Cell viability, CTG, SW480; format: cell-based; conditions: Homo sapiens, SW480 (Colon)
Experimental: as §1

[23] = system: MYC-driven cancers; experiment: Cell viability and cell counting assays in cancer cells; format: cell-based; conditions: TNBC, CRPC, lung and colorectal adenocarcinoma cells
Experimental: as §3
as §1, with “(Sample-Background)/(Control-Background). Current standard of care drugs, Enzalutamide, Palbociclib and Cetuximab were used as comparative controls.” for “(Sample-Background)/(Control-Background).”

Row | IC50 [1] [µM] | IC50 [2] [µM] | IC50 [3] [µM] | IC50 [12] [µM] | IC50 [14] [µM] | IC50 [15] [µM] | IC50 [16] [µM] | Structure (SMILES) | Inhibition of LIN28B binding to pre-let-7a (FRET signal) [17] | Upregulation of mature let-7 miRNAs [18] | further results
1 | 2 | 8 | 6 | 17 | 215 | 27 | 51 | CC(=O)Nc1cccc(-c2ccc3ncc(-c4ccccc4)n3n2)c1 [JGJ023, N-(3-(3-Phenylimidazo[1,2-b]pyridazin-6-yl)phenyl)acetamide] | inhibit LIN28's RNA-binding capacity significantly more than compound LN1632 | upregulated mature let-7 miRNAs at significantly lower doses than LN1632 | IC50 [4]: 3 µM; IC50 [5]: 8 µM; IC50 [6]: 12 µM; IC50 [7]: 20 µM; IC50 [8]: 94 µM; IC50 [9]: 124 µM; IC50 [10]: 7 µM; IC50 [11]: 61 µM; IC50 [13]: 38 µM; Apoptosis and cell numbers [19]: induces apoptosis and reduces cell numbers of mCRPC compared to Enzalutamide
2 | 1 | 2 | 3 | 3 | 43 | 3 | 85 | CC(=O)Nc1cccc(-c2ccc3[nH]cc(-c4ccccc4)c3n2)c1 [JGJ034, N-(3-(3-Phenyl-1H-pyrrolo[3,2-b]pyridin-5-yl)phenyl)acetamide] | inhibit LIN28's RNA-binding capacity significantly more than compound LN1632 | upregulated mature let-7 miRNAs at significantly lower doses than LN1632 | IC50 [20]: 2 µM; IC50 [21]: 33 µM; IC50 [22]: 41 µM; Proliferation and apoptosis of cancer cells [23]: reduced proliferation and induced apoptosis preferentially in MYC-driven cancers
